These are literature values, as cited in patent publication US20050175694A1, “Long acting compositions comprising zidovudine and lamivudine” (priority 2002, published 2005).

The conditions of this data set: in vivo.

Consider `Cc1cn([C@H]2C[C@H](N=[N+]=[N-])[C@@H](CO)O2)c(=O)[nH]c1=O` [zidovudine], for which the serum half-life is 1.1 h and the oral bioavailability is listed as 60%.
As for `Nc1ccn([C@@H]2CS[C@H](CO)O2)c(=O)n1` [lamivudine], the oral bioavailability is listed as 86%.
